[invAb] = inverted abasic unit; d = 2'-deoxy (DNA); m = 2'-O-methyl; r = 2'-OH (RNA); f = 2'-fluoro
What was measured:
[1] = tested on: mTSLP mRNA; assay: Initial screening: mouse TSLP mRNA knock-down by RT-PCR (Taqman) after RNAiMax transfection of NIH 3T3 cells; format: cell-based; conditions: 10 nM siNA, 24 hrs post-transfection, mean ± s.d., summary from 2 screens
Protocol: (§1) All cells were obtained from ATCC (Manassas, Va.) unless otherwise indicated. Cells were grown and transfected under standard conditions, which are detailed below for each cell line.
NIH 3T3 (murine; ATCC cat#CRL-1658): Cells were cultured at 37° C. in the presence of 5% CO2 and grown in Dulbecco's modified Eagle's medium (DMEM) with 4 mM L-glutamine adjusted to contain 1.5 g/L sodium bicarbonate and 4.5 g/L glucose and supplemented with fetal bovine serum at a final concentration of 10% and 100 μg/mL of streptomycin and 100 U/mL penicillin.
(§2) All transfections were performed using RNAiMax (Invitrogen Cat# 13778-150) as per the manufacturer's instructions.
(§3) Both human and murine cell lines were transfected in the similar fashion. Cells were plated in all wells of a tissue-culture treated, 96-well plate at a final count of 5,000 cells/well in […], of appropriate culture media. Cells were cultured for 24 hours after plating at 37° C. in the presence of 5% CO2.
(§4) After 24 hours, complexes containing siNA and RNAiMax were created as follows: A solution of RNAiMax diluted 33-fold in OPTI-MEM was prepared. In parallel, solutions of the siNAs for testing were prepared to a final concentration of 120 nM in OPTI-MEM. After incubation of RNAiMax/OPTI-MEM solution at room temperature for 5 min, an equal volume of the siNA solution and the RNAiMax solution were added together for each of the siNAs.
(§5) This solution was incubated at room temperature for 20 minutes. After incubation, 20 uL of the solution was added to each of the relevant wells.
(§6) The final concentration of siNA in each well was 10 nM and the final volume of RNAiMax in each well was 0.3 ul.
(§7) The time of incubation with the RNAiMax-siNA complexes was 24 hours, unless otherwise indicated. There was no change in media between the transfection and harvesting of the cells unless otherwise indicated.
(§8) RNA was extracted from a 96-well plate using the TaqMan® Gene Expression Cells-to-CT™ Kit (Cat# 4399002) with a modified protocol. Briefly, a 60 uL (1 plate) or 110 uL (2 plates) of the Lysis Solution with DNase I was dispensed into each well of the Lysis Buffer Plate (twin.tec full skirt plate). The lysis buffer and stop plates were stored at 4° C. until the cells were washed.
(§9) The plate was spun at 1100 rpm for 5 minutes. The culture medium was aspirated and discarded from the wells of the culture plate. The lysis was performed automatically using a BioMek FX instrument and method. After the Biomek method was completed, the lysis plate was incubated for 2 min. at room temperature. The lysis plate can be stored for 2 hours at 4° C., or at −20° C. or −80° C. for two months.
(§10) Each well of the reverse transcription plate required 10 uL of 2× reverse transcriptase Buffer, luL of 20× reverse transcription enzyme and 2 uL of nuclease-free water. The reverse transcription master mix was prepared by mixing 2× reverse transcription buffer, 20× reverse transcription enzyme mix, and nuclease-free water. 13 uL of the reverse transcription master mix was dispensed into each well of the reverse transcription plate (semi-skirted). A separate reverse transcription plate was prepared for each cell plate. The plate was loaded onto a Biomek NX or Biomek FX Dual-96 and the Biomek method was run. The program is programmed to automatically added 7 uL of lysate from the cell lysis procedure described above into each well of the reverse transcription plate. The plate is sealed and spun on a centrifuge (1000 rpm for 30 seconds) to settle the contents to the bottom of the reverse transcription plate. The plate is placed in a thermocycler at 37° C. for 60 min, 95° C. for 5 min, and 4° C. until the plate is removed from the thermocycler. Upon removal, if not used immediately, the plate was frozen at −20° C.
A series of probes and primers were used to detect the various mRNA transcripts of the genes of TSLP, IL-8 and GAPDH in human cell lines. […]

[2] = tested on: TSLP mRNA; assay: Initial screening: TSLP mRNA knock-down by RT-PCR (Taqman) after RNAiMax transfection of NHLF cells; format: cell-based; conditions: 10 nM siNA, human NHLF cells, 24 hrs post-transfection, relative to non-targeting control, normalized to GAPDH; mean ± s.d. from 2 experiments
Protocol: as §1
NHLF (human; Lonza cat# CC-2512): Cells were cultured at 37° C. in the presence of 5% CO2 and grown Fibroblast Basal Medium (Lonza cat# CC-3β2) supplemented growth factors (provided with the kit) and 100 μg/mL of streptomycin and 100 U/mL penicillin.
as §2, §3, §4, §5, §6, §7, §8, §9, §10
A series of probes and primers were used to detect the various mRNA transcripts of the genes of TSLP, IL-8 and GAPDH in human cell lines. All the Taqman probes and primers for the experiments here-in described were supplied as pre-validated sets by Applied Biosystems, Inc. (see Table 2). […]

Substance | % KD mTSLP NIH3T3 [1] | % KD TSLP [2]
25430-DC: siNA duplex: sense B cccuGAAAAAGGAAAAAuA TTB (SEQ ID NO: 43), antisense UAUuuuuccuuuuucAGGGUU (SEQ ID NO: 44) (sense CCCUGAAAAAGGAAAAAUATT; antisense UAUUUUUCCUUUUUCAGGGUU; inverted abasic caps, TT overhang, chemistry not fully specified) | 30.4 ± 9.9% | 89 ± 4.5%
25431-DC: siNA duplex: sense B GcuucAGGAuGcAuuGcAA TTB (SEQ ID NO: 45), antisense UUGcAAuGcAuccuGAAGcUU (SEQ ID NO: 46) (sense GCUUCAGGAUGCAUUGCAATT; antisense UUGCAAUGCAUCCUGAAGCUU; sense: DNA at AGT, 2'-fluoro at CU, [invAb] at 5' end, 3' end, backbone not given here; antisense: sugars from the 5' end rrrfmmfmfmffffmmmmfmm, backbone not given here) | −10.8 ± 14.2% | −11 ± 39.5%
25432-DC: siNA duplex: sense B cuGAGGAAAAucAGGAcAu TTB (SEQ ID NO: 47), antisense AUGuccuGAuuuuccucAGUU (SEQ ID NO: 48) (sense CUGAGGAAAAUCAGGACAUTT; antisense AUGUCCUGAUUUUCCUCAGUU; sense: DNA at AGT, 2'-fluoro at CU, [invAb] at 5' end, 3' end, backbone not given here; antisense: sugars from the 5' end r3 f4 m2 f8 m4, backbone not given here) | 37.1 ± 3.8% | 47 ± 26.2%
25433-DC: siNA duplex: sense B cGcucGccAAAGAAAuGuu TTB (SEQ ID NO: 49), antisense AACAuuucuuuGGcGAGcGUU (SEQ ID NO: 50) (sense CGCUCGCCAAAGAAAUGUUTT; antisense AACAUUUCUUUGGCGAGCGUU; sense: DNA at AGT, 2'-fluoro at CU, [invAb] at 5' end, 3' end, backbone not given here; antisense: sugars from the 5' end rrrmfffffffmmfmmmfmmm, backbone not given here) | 7.5 ± 3.3% | 36 ± 25^ %
25435-DC: siNA duplex: sense B cccAAGcucuuAAAuGcuA TTB (SEQ ID NO: 53), antisense UAGcAuuuAAGAGcuuGGGUU (SEQ ID NO: 54) (sense CCCAAGCUCUUAAAUGCUATT; antisense UAGCAUUUAAGAGCUUGGGUU; sense: DNA at AGT, 2'-fluoro at CU, [invAb] at 5' end, 3' end, backbone not given here; antisense: sugars from the 5' end rrrfmfffmmmmmfffmmmmm, backbone not given here) | −60.6 ± 5.4% | −8 ± 25.4%
25437-DC: siNA duplex: sense B cAGGGAGAcuccAAcuuAA TTB (SEQ ID NO: 57), antisense UUAAGuuGGAGucucccuGUU (SEQ ID NO: 58) (sense CAGGGAGACUCCAACUUAATT; antisense UUAAGUUGGAGUCUCCCUGUU; sense: sugars from the 5' end frddddddffffddfffdddd, [invAb] at 5' end, 3' end, backbone not given here; antisense: sugars from the 5' end rrrmmffmmmmfffffffmmm, backbone not given here) | 33.8 ± 4.2% | −51 ± 36.2%
25439-DC: siNA duplex: sense B cAcGuGGGAAuGcAcuGAu TTB (SEQ ID NO: 61), antisense AUCAGuGcAuucccAcGuGUU (SEQ ID NO: 62) (sense CACGUGGGAAUGCACUGAUTT; antisense AUCAGUGCAUUCCCACGUGUU; sense: DNA at AGT, 2'-fluoro at CU, [invAb] at 5' end, 3' end, backbone not given here; antisense: sugars from the 5' end rrrmmfrfmfffffmfmfrmm, backbone not given here) | 16.8 ± 14.7% | 12 ± 36.7%
25440-DC: siNA duplex: sense B cucuGGuuuuuuAAAuGuA TTB (SEQ ID NO: 63), antisense UACAuuuAAAAAAccAGAGUU (SEQ ID NO: 64) (sense CUCUGGUUUUUUAAAUGUATT; antisense UACAUUUAAAAAACCAGAGUU; sense: DNA at AGT, 2'-fluoro at CU, [invAb] at 5' end, 3' end, backbone not given here; antisense: sugars from the 5' end rrrmfffmmmmmmffmmmmmm, backbone not given here) | 1 ± 33.1% | 16 ± 20.1%
25441-DC: siNA duplex: sense B GGucAGuuAuGucAAuGuu TTB (SEQ ID NO: 65), antisense AACAuuGAcAuAAcuGAccUU (SEQ ID NO: 66) (sense GGUCAGUUAUGUCAAUGUUTT; antisense AACAUUGACAUAACUGACCUU; sense: DNA at AGT, 2'-fluoro at CU, [invAb] at 5' end, 3' end, backbone not given here; antisense: sugars from the 5' end rrrmffmmfmfmmffmmffmm, backbone not given here) | −13.4 ± 10^ % | 40 ± 16.2%
25442-DC: siNA duplex: sense B GGcAAGAGAuuGcAucAuA TTB (SEQ ID NO: 67), antisense UAUGAuGcAAucucuuGccUU (SEQ ID NO: 68) (sense GGCAAGAGAUUGCAUCAUATT; antisense UAUGAUGCAAUCUCUUGCCUU; sense: DNA at AGT, 2'-fluoro at CU, [invAb] at 5' end, 3' end, backbone not given here; antisense: sugars from the 5' end rrrmmfmfmmffffffmffmm, backbone not given here) | −70.9 ± 6.4% | 12 ± 27^ %
25443-DC: siNA duplex: sense B GAGGAAGcuuAcAuuAcAu TTB (SEQ ID NO: 69), antisense AUGuAAuGuAAGcuuccucUU (SEQ ID NO: 70) (sense GAGGAAGCUUACAUUACAUTT; antisense AUGUAAUGUAAGCUUCCUCUU; sense: DNA at AGT, 2'-fluoro at CU, [invAb] at 5' end, 3' end, backbone not given here; antisense: sugars from the 5' end rrrfmmfmfmmmfffffffmm, backbone not given here) | 16.7 ± 11.7% | 43 ± 12.1%
